Consider 2 molecules from patent publication US20220331318A1, “USE OF AN MDM2 INHIBITOR FOR THE TREATMENT OF MYELOFIBROSIS” (Novartis AG, priority 2019, published 2022).

Data set [1] concerns other major CYP enzymes or transporters. Particulars: cited from earlier work.
For data set [2], the target named is JAK3 (Homo sapiens, UniProt P52333). Particulars: at clinically relevant concentrations; cited from earlier work.
Data set [3] concerns broad panel of 26 kinases. As to conditions: tested at 200 nM; cited from earlier work.
A short description of data set [4]: Preliminary PK analysis, Phase I/II study of ruxolitinib with siremadlin in myelofibrosis patients. The data set is classed as in vivo, human. Particulars: for Exposure compared with historical single-agent data: combination of ruxolitinib and siremadlin 20 mg QD. From the text:
(§1) A Randomized, Open-Label, Phase I/II Open Platform Study Evaluating Safety and Efficacy of Novel Ruxolitinib Combination in Myelofibrosis Patients
(§2) The purpose of this study is to investigate the safety, pharmacokinetics and preliminary efficacy of combination treatment of ruxolitinib with siremadlin in MF subjects. The study consists of three parts:
Dose reductions/interruptions were not taken into consideration for this preliminary PK analysis. Nominal times were used.
This study was not specifically designed to investigate the potential for PK drug interactions, however comparative assessment of historical data has been done. A PK DDI between ruxolitinib and siremadlin is unlikely or predicted to be low, based on PBPK analysis.

Data set [5] addresses T1, BCRP (Homo sapiens, UniProt Q9UNQ0).
T1 sequence (Q9UNQ0 1-655): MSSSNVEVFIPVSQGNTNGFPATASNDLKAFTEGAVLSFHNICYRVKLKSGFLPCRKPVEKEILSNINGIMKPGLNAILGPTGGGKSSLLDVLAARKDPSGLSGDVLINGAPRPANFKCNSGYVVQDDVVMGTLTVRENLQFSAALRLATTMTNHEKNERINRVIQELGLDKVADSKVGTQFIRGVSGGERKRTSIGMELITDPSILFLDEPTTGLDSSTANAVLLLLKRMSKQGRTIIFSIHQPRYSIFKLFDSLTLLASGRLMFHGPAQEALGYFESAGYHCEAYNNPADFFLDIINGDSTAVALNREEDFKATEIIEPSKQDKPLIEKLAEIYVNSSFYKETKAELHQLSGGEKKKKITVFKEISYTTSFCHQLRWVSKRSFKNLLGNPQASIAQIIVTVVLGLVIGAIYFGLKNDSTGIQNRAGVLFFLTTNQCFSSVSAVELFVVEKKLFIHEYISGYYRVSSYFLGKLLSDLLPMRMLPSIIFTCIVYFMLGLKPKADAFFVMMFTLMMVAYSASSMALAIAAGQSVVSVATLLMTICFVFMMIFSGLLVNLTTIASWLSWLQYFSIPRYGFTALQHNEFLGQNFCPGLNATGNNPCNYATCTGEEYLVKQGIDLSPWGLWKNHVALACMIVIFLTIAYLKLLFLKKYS
In words: BCRP substrate assessment in vitro. In kind it is in vitro ADME.

The subject of data set [6] is AML subjects. Nature of the data set: Phase I study HDM201X2101, single-agent siremadlin in solid tumors or hematologic malignancies (R/R AML). In kind it is in vivo, human. The text has this: In this study, the selection of the siremadlin dose and regimen is based on the currently available preclinical and clinical safety, efficacy, PK and PK/PD modeling information from the phase I study HDM201X2101, a dose escalation and expansion study of single-agent siremadlin in patients with solid tumors or hematologic malignancies (R/R AML). At the time of data cut-off (15 Jan. 2018), 199 subjects have been treated applying various dosing regimens: 115 subjects with solid and 84 patients with hematological tumors. Safety and efficacy data from this trial in AML subjects was used to determine a recommended Phase 2 dose regimen of 45 mg once a day (QD) from day 1 to day 7 of a 28-day cycle (regimen 2C) which is disclosed in WO/2018/178925 (incorporated herewith by reference), At this dose regimen, Complete Response/Complete Response with incomplete blood count recovery (CR/CRi) were respectively 2/4 subjects out of 24 (25%).

Data set [7] concerns CYP3A4/5. Nature of the data set: CYP3A4/5 induction in vitro. The data set is classed as in vitro ADME. As to conditions: net effect anticipated rather as an inhibitor than an inducer.
Data set [8] deals with CYP3A4/5. Nature of the data set: CYP3A4/5 inhibition in vitro. In kind it is in vitro ADME.
The target in data set [9] is CYP3A4 (Homo sapiens, UniProt P08684). In words: Metabolism by CYP enzymes. The data set is classed as in vitro ADME. Particulars: siremadlin.
CYP3A4, sequence (P08684 whole entry): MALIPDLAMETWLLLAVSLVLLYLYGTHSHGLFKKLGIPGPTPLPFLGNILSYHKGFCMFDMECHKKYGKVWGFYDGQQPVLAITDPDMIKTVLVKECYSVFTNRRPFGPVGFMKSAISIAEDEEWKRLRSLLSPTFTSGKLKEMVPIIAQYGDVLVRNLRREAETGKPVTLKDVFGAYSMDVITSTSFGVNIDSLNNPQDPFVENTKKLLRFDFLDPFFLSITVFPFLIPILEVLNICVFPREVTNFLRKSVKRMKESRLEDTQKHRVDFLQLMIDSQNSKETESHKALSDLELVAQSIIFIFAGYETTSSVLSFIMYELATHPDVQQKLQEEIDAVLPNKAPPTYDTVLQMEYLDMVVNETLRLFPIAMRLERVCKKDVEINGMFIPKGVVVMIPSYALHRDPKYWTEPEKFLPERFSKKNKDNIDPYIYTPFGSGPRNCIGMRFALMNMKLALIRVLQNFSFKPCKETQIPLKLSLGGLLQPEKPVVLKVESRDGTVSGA
Data set [10] addresses P-gp (Homo sapiens, UniProt P08183). Nature of the data set: P-gp substrate assessment in vitro. The data set is classed as in vitro ADME.
In data set [11] the test system is myelofibrosis patients. In words: Safety (DLTs, SAEs), cohort 1 of Phase I/II study of siremadlin in combination with ruxolitinib in myelofibrosis patients. The data set is classed as in vivo, human. As to conditions: 7 patients, cohort 1, 20 mg Siremadlin in combination with Ruxolitinib.
Source text: as §1, §2
Incidence and severity of dose limiting toxicity (DLTs) within the first 2 treatment cycles in Part 1 of the study
1 patient potentially not evaluable due to Siremadlin interruption within first 2 cycles of treatment. PK DDI between ruxolitinib and Siremadlin is unlikely or predicted to be low, based on PBPK analysis. As per statistical model the dose of Siremadlin can be increased to 30 mg or 40 mg D1-D5 in the next cohort.

Data set [12] concerns solid and hematological tumors. As to conditions: preclinical and clinical PK/PD modeling (Guerreiro et al 2018, Meille et al 2017); cited from earlier work.
The mark [13] stands for this setting: AML, 45 mg QD day 1 to day 7 of a 28-day cycle (regimen 2C).

JAK3, sequence (P52333 whole entry): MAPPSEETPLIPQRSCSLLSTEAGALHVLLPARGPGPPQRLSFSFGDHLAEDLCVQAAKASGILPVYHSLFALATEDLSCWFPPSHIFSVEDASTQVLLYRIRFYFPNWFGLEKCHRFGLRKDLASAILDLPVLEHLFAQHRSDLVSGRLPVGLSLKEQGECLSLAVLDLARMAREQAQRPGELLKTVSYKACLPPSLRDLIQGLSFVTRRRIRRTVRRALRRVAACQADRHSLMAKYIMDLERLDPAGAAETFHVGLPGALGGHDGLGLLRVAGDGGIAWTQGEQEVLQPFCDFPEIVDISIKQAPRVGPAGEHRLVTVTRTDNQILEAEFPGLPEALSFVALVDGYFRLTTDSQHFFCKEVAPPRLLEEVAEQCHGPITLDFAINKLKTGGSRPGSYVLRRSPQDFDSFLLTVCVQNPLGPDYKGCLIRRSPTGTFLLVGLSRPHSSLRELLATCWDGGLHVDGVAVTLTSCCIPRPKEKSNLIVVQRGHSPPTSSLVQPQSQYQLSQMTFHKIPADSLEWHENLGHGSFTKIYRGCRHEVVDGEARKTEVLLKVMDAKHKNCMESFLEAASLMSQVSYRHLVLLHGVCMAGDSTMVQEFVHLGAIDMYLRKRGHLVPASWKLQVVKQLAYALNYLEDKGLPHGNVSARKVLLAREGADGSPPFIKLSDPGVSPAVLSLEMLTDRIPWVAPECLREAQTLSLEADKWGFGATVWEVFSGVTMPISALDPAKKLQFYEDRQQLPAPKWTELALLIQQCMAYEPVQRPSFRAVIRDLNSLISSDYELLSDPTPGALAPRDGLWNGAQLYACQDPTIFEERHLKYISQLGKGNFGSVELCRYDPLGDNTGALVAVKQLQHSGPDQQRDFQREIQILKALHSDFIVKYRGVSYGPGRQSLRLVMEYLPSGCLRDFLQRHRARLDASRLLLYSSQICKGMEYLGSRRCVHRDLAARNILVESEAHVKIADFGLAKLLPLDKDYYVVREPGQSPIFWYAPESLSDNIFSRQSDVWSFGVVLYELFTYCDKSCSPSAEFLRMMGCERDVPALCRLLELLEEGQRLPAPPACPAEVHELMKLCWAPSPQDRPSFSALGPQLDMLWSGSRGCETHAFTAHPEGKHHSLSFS
P-gp, sequence (P08183 whole entry): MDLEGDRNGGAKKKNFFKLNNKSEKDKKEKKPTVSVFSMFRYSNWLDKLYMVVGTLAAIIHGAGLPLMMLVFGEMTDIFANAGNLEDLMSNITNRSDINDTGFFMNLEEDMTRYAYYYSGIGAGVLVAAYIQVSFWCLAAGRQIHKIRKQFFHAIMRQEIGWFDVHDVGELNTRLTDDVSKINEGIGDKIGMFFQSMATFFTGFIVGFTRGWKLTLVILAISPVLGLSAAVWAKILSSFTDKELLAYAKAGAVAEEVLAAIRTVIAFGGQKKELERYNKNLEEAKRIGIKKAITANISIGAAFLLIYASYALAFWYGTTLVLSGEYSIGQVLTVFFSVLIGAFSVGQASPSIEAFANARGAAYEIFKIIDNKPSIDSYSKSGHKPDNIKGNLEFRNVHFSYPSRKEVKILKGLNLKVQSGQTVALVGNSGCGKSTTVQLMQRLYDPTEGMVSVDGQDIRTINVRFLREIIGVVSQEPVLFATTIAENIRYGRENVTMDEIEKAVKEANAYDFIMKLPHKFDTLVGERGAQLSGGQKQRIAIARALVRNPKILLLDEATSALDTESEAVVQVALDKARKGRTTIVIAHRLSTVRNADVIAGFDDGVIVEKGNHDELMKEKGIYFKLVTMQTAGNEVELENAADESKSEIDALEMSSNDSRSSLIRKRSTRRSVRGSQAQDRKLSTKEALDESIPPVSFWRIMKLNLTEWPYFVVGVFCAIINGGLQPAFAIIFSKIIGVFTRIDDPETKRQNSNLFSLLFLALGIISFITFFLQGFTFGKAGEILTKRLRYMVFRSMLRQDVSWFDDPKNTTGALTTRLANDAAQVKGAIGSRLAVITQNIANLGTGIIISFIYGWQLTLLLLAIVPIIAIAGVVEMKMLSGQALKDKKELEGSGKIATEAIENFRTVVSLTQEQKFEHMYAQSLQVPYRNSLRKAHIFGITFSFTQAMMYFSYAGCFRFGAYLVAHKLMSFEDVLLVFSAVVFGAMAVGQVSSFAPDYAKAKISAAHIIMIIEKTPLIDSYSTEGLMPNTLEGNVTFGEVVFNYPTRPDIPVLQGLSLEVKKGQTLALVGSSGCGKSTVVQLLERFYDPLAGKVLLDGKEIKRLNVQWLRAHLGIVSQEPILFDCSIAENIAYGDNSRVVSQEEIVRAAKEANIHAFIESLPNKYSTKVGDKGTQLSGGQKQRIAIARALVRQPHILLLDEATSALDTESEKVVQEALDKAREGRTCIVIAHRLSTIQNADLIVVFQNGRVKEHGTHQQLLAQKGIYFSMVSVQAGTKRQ

For `N#CC[C@H](C1CCCC1)n1cc(-c2ncnc3[nH]ccc23)cn1` [ruxolitinib, (R)-3-(4-(7H-pyrrolo[2,3-d]pyrimidin-4-yl)-1H-pyrazol-1-yl)-3-cyclopentylpropanenitrile], the “capacity to inhibit other major CYP enzymes or transporters” value in data set [1] was “little or no capacity to inhibit”. Besides, the “inhibition of JAK3” value in [2] was “does not inhibit”. In [3], the “inhibition of a broad panel of 26 kinases” value was < 30%. Besides, the “Exposure compared with historical single-agent data” value in data set [4] (MF patients) is listed as “within the exposure range of values observed previously”. In addition, in [4] (MF patients, ruxolitinib 10, 15 or 20 mg BID with siremadlin), the “accumulation upon repeated dosing” value is “little accumulation”. Also, the half-life (commonly how long it takes for the measured level to halve) in [4] (human, in vivo, oral, 20 mg) lay in the range of 3 to 4 h.

On to `COc1ncc(-c2nc3c(n2C(C)C)[C@H](c2ccc(Cl)cc2)N(c2cc(Cl)cn(C)c2=O)C3=O)c(OC)n1` [siremadlin, (S)-5-(5-Chloro-1-methyl-2-oxo-1,2-dihydro-pyridin-3-yl)-6-(4-chloro-phenyl)-2-(2,4-dimethoxy-pyrimidin-5-yl)-1-isopropyl-5,6-dihydro-1H-pyrrolo[3,4-d]imidazol-4-one], for which the BCRP substrate result in data set [5] was “substrate”. For the same molecule, in [6] (setting [13]), the “Complete Response (CR)” value was 2 subjects out of 24 and the “Complete Response with incomplete blood count recovery (CRi)” value is on record as 4 subjects out of 24. The molecule also registered a CR/CRi rate in data set [6] (AML, 45 mg QD day 1 to day 7 of a 28-day cycle (regimen 2C), 24 subjects) of 25%. In addition, in data set [6] (hematological tumor patients, regimen 2C), the “dose-limiting toxicity (DLT)” value is reported as “tumor lysis syndrome (TLS)”. For the same molecule, the “severity of adverse events” value in data set [6] (hematological tumor patients, regimen 2C, cytopenias most commonly observed) was “mild to moderate in severity, reversible and manageable”. Moreover, in data set [6] (single agent), the “most frequently reported adverse drug reactions in clinic” value is “hematological toxicities including thrombocytopenia, neutropenia and anemia”. The “induction of CYP3A4/5” value in [7] is listed as “inducer”. The “inhibition of CYP3A4/5” value in data set [8] is “time-dependent inhibitor and a reversible inhibitor”. For the same molecule, the metabolizing enzyme entry in [9] is recorded as “predominantly metabolized by CYP3A4”. Also, in [10], the P-gp substrate entry is “substrate”. Also, in [11], the DLTs result was “no DLTs” and the “on treatment SAEs” value is on record as “no on treatment SAEs”. Moreover, the “anti-tumor activity on reducing application from 7 to 5 consecutive days per 28-day cycle” value in data set [12] is reported as “maintains equivalent anti-tumor activity”. Also, the “Exposure compared with historical single-agent data” value in [4] (MF patients) was “comparable to exposures observed previously”.
